Results reported in patent publication US20220289732A1, “HETEROCYCLIC WDR5 INHIBITORS AS ANTI-CANCER COMPOUNDS” (NOVARTIS AG, priority 2019, published 2022).

Key:
WDR5 = WDR5 (Homo sapiens, UniProt P61964); assay: WDR5 HTRF binding assay; settings: read-out: (a) WDR5 HTRF Pep Val v.1[Inhibitor/IC50]Qualified AC50
How it was run: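 In this HTRF displacement format, biotinylated MLL1 WIN peptide (3762-3773, 20 nM) binds WDR5 (6 nM) in 25 mM Hepes pH 7.5 with 100 mM NaCl, 2 mM DTT and 0.1% BSA for 20 min at rt. Detection used streptavidin-APC/anti-His-Eu for 1 hr. IC50 came from dose-response fits of normalized signal; 15 nM biotin-PEG-His peptide served as counter assay.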

[1] = target: wild type MLL1 four-member complex (MLL1-4C) (Homo sapiens, UniProt P61964); assay: MLL1 LC-MS assay (SAH production); format: biochemical; settings: read-out: (b) MLL LCMS Peptide Val.v.1 Qualified AC50
How it was run: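 SAH formation, measured by LC-MS/MS after a TFA quench containing d4-SAH, was normalised to no-compound and no-enzyme controls and fitted to a dose-response curve for IC50. Reactions ran 120 min at rt (pH 8.0 Tris buffer) with final 30 nM MLL1 four-member complex, 2.5 μM SAM and 10 μM biotinylated H3[1-21] peptide, after a 20-min enzyme/SAM-compound preincubation.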

MV4-11 cells = assay: MV4-11 6-day cell growth CTG (CellTiter-Glo) assay; format: cell-based; settings: Homo sapiens, MV4-11, 144 h, 6 days, read-out: (c) MLL/WDR5 cell proliferation assay//MLL/WDR5 proliferation MV4:11 Qualified AC50
How it was run: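 IC50 comes from a dose-response fit of % inhibition relative to DMSO controls, with viable cells measured by CellTiter-Glo luminescence. Compounds were tested over 12 points (1:3, starting at 50 μM final) on MV4-11 cells plated at 300/well and grown 6 days.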

Row | Structure (SMILES) | IC50 (WDR5) | AC50 [1] | AC50 (MV4-11 cells)
1 | CCOc1cc(C(C)N2CCc3c(cc(CCN(C)CC)cc3-c3cc(F)ncc3C)C2=O)ncc1C#N (stereo not drawn) [Example 143, 4-ethoxy-6-(1-(7-(2-(ethyl(methyl)amino)ethyl)-5-(2-fluoro-5-methylpyridin-4-yl)-1-oxo-3,4-dihydroisoquinolin-2(1H)-yl)ethyl)nicotinonitrile] | 10 to 1000 nM | 10 to 1000 nM | 10 to 1000 nM
2 | CCOc1cc(CN2CCc3c(cc(CCN(C)CC)cc3-c3cc(C)cnc3C(F)F)C2=O)ncc1C#N [Example 144, 6-((5-(2-(difluoromethyl)-5-methylpyridin-3-yl)-7-(2-(ethyl(methyl)amino)ethyl)-1-oxo-3,4-dihydroisoquinolin-2(1H)-yl)methyl)-4-ethoxynicotinonitrile] | 10 to 1000 nM | 10 to 1000 nM | 10 to 1000 nM
3 | CCOc1cc([C@H](C)N2CCc3c(cc(CCN(C)CC)cc3-c3cn(C)nc3C)C2=O)ncc1F [Example 145, (S)-5-(1,3-dimethyl-1H-pyrazol-4-yl)-2-(1-(4-ethoxy-5-fluoropyridin-2-yl)ethyl)-7-(2-(ethyl(methyl)amino)ethyl)-3,4-dihydroisoquinolin-1(2H)-one] | 10 to 1000 nM | 10 to 1000 nM | 10 to 1000 nM
4 | CCN(C)CCc1cc2c(c(-c3cn(C)nc3C(F)F)c1)CCN(C(C)c1cnc(F)c(OC)c1)C2=O (stereo not drawn) [Example 146, 5-(3-(difluoromethyl)-1-methyl-1H-pyrazol-4-yl)-7-(2-(ethyl(methyl)amino)ethyl)-2-(1-(6-fluoro-5-methoxypyridin-3-yl)ethyl)-3,4-dihydroisoquinolin-1(2H)-one] | 10 to 1000 nM | 10 to 1000 nM | 10 to 1000 nM
5 | CCOc1cc(C(C)N2CCc3c(cc(CCN(C)CC)cc3-c3ccc(Cl)nc3C)C2=O)ncc1C#N (stereo not drawn) [Example 147, 6-(1-(5-(6-chloro-2-methylpyridin-3-yl)-7-(2-(ethyl(methyl)amino)ethyl)-1-oxo-3,4-dihydroisoquinolin-2(1H)-yl)ethyl)-4-ethoxynicotinonitrile] | 10 to 1000 nM | 10 to 1000 nM | 10 to 1000 nM
6 | CCOc1cc(C(C)N2CCc3c(cc(CCN(C)CC)cc3-c3cn(C)nc3C(F)(F)F)C2=O)ncc1C#N (stereo not drawn) [Example 148, 4-ethoxy-6-(1-(7-(2-(ethyl(methyl)amino)ethyl)-5-(1-methyl-3-(trifluoromethyl)-1H-pyrazol-4-yl)-1-oxo-3,4-dihydroisoquinolin-2(1H)-yl)ethyl)nicotinonitrile] | 10 to 1000 nM | 10 to 1000 nM | 10 to 1000 nM
7 | CCOc1cc([C@H](C)N2CCc3c(cc(CCN(C)CC)cc3-c3cn(C)c(=O)cc3C(F)F)C2=O)ncc1C#N [Example 149, (S)-6-(1-(5-(4-(difluoromethyl)-1-methyl-6-oxo-1,6-dihydropyridin-3-yl)-7-(2-(ethyl(methyl)amino)ethyl)-1-oxo-3,4-dihydroisoquinolin-2(1H)-yl)ethyl)-4-ethoxynicotinonitrile] | 10 to 1000 nM | 10 to 1000 nM | 10 to 1000 nM
8 | CCOc1cc(C(C)N2CCc3c(cc(CCN(C)CC)cc3-c3cc(O)cnc3C)C2=O)ncc1C#N (stereo not drawn) [Example 150, 4-ethoxy-6-(1-(7-(2-(ethyl(methyl)amino)ethyl)-5-(5-hydroxy-2-methylpyridin-3-yl)-1-oxo-3,4-dihydroisoquinolin-2(1H)-yl)ethyl)nicotinonitrile] | 10 to 1000 nM | 10 to 1000 nM | 10 to 1000 nM
9 | CCOc1cc(C(C)N2CCc3c(cc(CCN(C)CC)cc3-c3cccnc3CC)C2=O)ncc1C#N (stereo not drawn) [Example 151, 4-ethoxy-6-(1-(7-(2-(ethyl(methyl)amino)ethyl)-5-(2-ethylpyridin-3-yl)-1-oxo-3,4-dihydroisoquinolin-2(1H)-yl)ethyl)nicotinonitrile] | 10 to 1000 nM | 10 to 1000 nM | 10 to 1000 nM
10 | CCOc1cc([C@H](C)N2CCc3c(cc(CCN(C)CC)cc3-c3ccncc3Cl)C2=O)ncc1C#N [Example 152, (S)-6-(1-(5-(3-chloropyridin-4-yl)-7-(2-(ethyl(methyl)amino)ethyl)-1-oxo-3,4-dihydroisoquinolin-2(1H)-yl)ethyl)-4-ethoxynicotinonitrile] | 10 to 1000 nM | 10 to 1000 nM | 10 to 1000 nM

Continued, in another order:

Row | IC50 (WDR5) | AC50 [1] | Structure (SMILES) | AC50 (MV4-11 cells)
11 | < 10 nM | 10 to 1000 nM | CCOc1cc([C@H](C)N2CCc3c(cc(CCN(C)CC)cc3-c3cn(C)c(=O)cc3C)C2=O)ncc1C#N [Example 131, (S)-6-(1-(5-(1,4-dimethyl-6-oxo-1,6-dihydropyridin-3-yl)-7-(2-(ethyl(methyl)amino)ethyl)-1-oxo-3,4-dihydroisoquinolin-2(1H)-yl)ethyl)-4 ethoxynicotinonitrile] | 10 to 1000 nM
12 | < 10 nM | 10 to 1000 nM | CCOc1cc(CN2CCc3c(cc(CCN(C)CC)cc3-c3ccc(F)nc3C)C2=O)ncc1F [Example 132, 2-((4-ethoxy-5-fluoropyridin-2-yl)methyl)-7-(2-(ethyl(methyl)amino)ethyl)-5-(6-fluoro-2-methylpyridin-3-yl)-3,4-dihydroisoquinolin-1(2H)-one] | 10 to 1000 nM
13 | < 10 nM | 10 to 1000 nM | CCOc1cc(CN2CCc3c(cc(CCN(C)CC)cc3-c3cc(C)ncc3Cl)C2=O)ncc1C#N [Example 133, 6-((5-(5-chloro-2-methylpyridin-4-yl)-7-(2-(ethyl(methyl)amino)ethyl)-1-oxo-3,4-dihydroisoquinolin-2(1H)-yl)methyl)-4-ethoxynicotinonitrile] | 10 to 1000 nM
14 | < 10 nM | 10 to 1000 nM | CCOc1cc([C@H](C)N2CCc3c(cc(CCN(C)CC)cc3-c3cn(C)nc3C)C2=O)ncc1C#N [Example 134, (S)-6-(1-(5-(1,3-dimethyl-1H-pyrazol-4-yl)-7-(2-(ethyl(methyl)amino)ethyl)-1-oxo-3,4-dihydroisoquinolin-2(1H)-yl)ethyl)-4-ethoxynicotinonitrile] | 10 to 1000 nM
15 | < 10 nM | 10 to 1000 nM | CCOc1cc(CN2CCc3c(cc(CCN(C)CC)cc3-c3cn(C)c(=O)cc3C)C2=O)ncc1C#N [Example 135, 6-((5-(1,4-dimethyl-6-oxo-1,6-dihydropyridin-3-yl)-7-(2-(ethyl(methyl)amino)ethyl)-1-oxo-3,4-dihydroisoquinolin-2(1H)-yl)methyl)-4-ethoxynicotinonitrile] | 10 to 1000 nM
16 | < 10 nM | 10 to 1000 nM | CCOc1cc(C(C)N2CCc3c(cc(CCN(C)CC)cc3-c3cc(OC)ncc3Cl)C2=O)ncc1C#N (stereo not drawn) [Example 136, 6-(1-(5-(5-chloro-2-methoxypyridin-4-yl)-7-(2-(ethyl(methyl)amino)ethyl)-1-oxo-3,4-dihydroisoquinolin-2(1H)-yl)ethyl)-4-ethoxynicotinonitrile] | 10 to 1000 nM
17 | < 10 nM | 10 to 1000 nM | CCN(C)CCc1cc2c(c(-c3ccc(F)nc3C)c1)CCN(Cc1cnc(F)c(OC)c1)C2=O [Example 137, 7-(2-(ethyl(methyl)amino)ethyl)-5-(6-fluoro-2-methylpyridin-3-yl)-2-((6-fluoro-5-methoxypyridin-3-yl)methyl)-3,4-dihydroisoquinolin-1(2H)-one] | 10 to 1000 nM
18 | < 10 nM | 10 to 1000 nM | CCOc1cc([C@H](C)N2CCc3c(cc(CCN(C)CC)cc3-c3cc(N)cnc3C(F)(F)F)C2=O)ncc1C#N [Example 138, (S)-6-(1-(5-(5-amino-2-(trifluoromethyl)pyridin-3-yl)-7-(2-(ethyl(methyl)amino)ethyl)-1-oxo-3,4-dihydroisoquinolin-2(1H)-yl)ethyl)-4-ethoxynicotinonitrile] | 10 to 1000 nM
19 | < 10 nM | 10 to 1000 nM | CCOc1cc([C@H](C)N2CCc3c(cc(CCN(C)CC)cc3-c3cccnc3C)C2=O)ncc1C#N [Example 139, (S)-4-ethoxy-6-(1-(7-(2-(ethyl(methyl)amino)ethyl)-5-(2-methylpyridin-3-yl)-1-oxo-3,4-dihydroisoquinolin-2(1H)-yl)ethyl)nicotinonitrile] | 10 to 1000 nM
20 | < 10 nM | 10 to 1000 nM | CCOc1cc(CN2CCc3c(cc(CCN(C)CC)cc3-c3cc(C)cnc3C)C2=O)ncc1C#N [Example 140, 6-((5-(2,5-dimethylpyridin-3-yl)-7-(2-(ethyl(methyl)amino)ethyl)-1-oxo-3,4-dihydroisoquinolin-2(1H)-yl)methyl)-4-ethoxynicotinonitrile] | 10 to 1000 nM
21 | 10 to 1000 nM | 10 to 1000 nM | CCOc1cc(C(C)N2CCc3c(cc(CCN(C)CC)cc3-c3ccnc(F)c3C)C2=O)ncc1C#N (stereo not drawn) [Example 141, 4-ethoxy-6-(1-(7-(2-(ethyl(methyl)amino)ethyl)-5-(2-fluoro-3-methylpyridin-4-yl)-1-oxo-3,4-dihydroisoquinolin-2(1H)-yl)ethyl)nicotinonitrile] | 10 to 1000 nM
22 | 10 to 1000 nM | 10 to 1000 nM | CCOc1cc([C@H](C)N2CCc3c(cc(CCN(C)CC)cc3-c3cc(C)ncc3F)C2=O)ncc1C#N [Example 142, (S)-4-ethoxy-6-(1-(7-(2-(ethyl(methyl)amino)ethyl)-5-(5-fluoro-2-methylpyridin-4-yl)-1-oxo-3,4-dihydroisoquinolin-2(1H)-yl)ethyl)nicotinonitrile] | 10 to 1000 nM
